Structures can show the parent of a compound that is named as a salt.
Key:
[1] = LD50 / acute toxicity, intraperitoneal route; format: in vivo; settings: i.p.; for Toxicity (Gleason): Gleason class in words, classes not defined
[2] = Hematic levels at different times after oral administration (absorption); format: in vivo, Wistar rat; settings: 100 mg/kg expressed as vincamine/apovincamine, 5% carboxymethyl cellulose suspension; for Tmax: rat, blood, po, read-out: Max. conc. time (converted)
Method: (§1) For the compounds of the present invention a number of pharmacological and pharmacokinetic tests have been carried out. […] As regards the pharmacological and pharmacodynamic activity, it has been studied on the percent variations of the hematic flow, as recorded at the vertebral arteria in the dog after administration of the tested compounds. As regards the pharmacokinetic tests, the compounds were administered per oral route to the Wistar rat, and the hematic levels at different times from the administration were measured.
For the evaluation of the absorption, all the compounds have been orally administered at the dosage of 100 mg/kg, expressed as vincamine and apovincamine, in form of a suspension in a 5% carboxymethyl cellulose solution.
The absorption was determined by evaulating the hematic levels at the following times (minutes) : 0, 30, 120, 240, 480, 10 hours and 12 hours, in order also to assess the time from the administration (max conc.time) the maximum absorption occurred.
The vincamine and apovincamine concentrations were assessed by chromatographic method.
For the evaluation of the prolonged action of the salts and of the adducts of vincamine and apovincamine the following criterium was adopted; as derivatives having a long-acting effect, there are considered those which, 120 minutes after the administration, show hematic levels higher than those obtained with vincamine and apovincamine.

[3] = test system: vertebral arteria; assay: Cerebral vasodilating activity: hematic flow at the vertebral arteria after i.v. administration; format: in vivo; settings: i.v. (femoral vein), 5 mg/kg of vincamine/apovincamine, anesthetized dog, 4 animals per compound
Method: as §1
The cerebral vasodilating activity was studied in the anestetized dog, by measuring, by means of Statham periarterial electromagnetic flowmeters, the hematic flow at the level of the […] which, in such animal species, constitutes the greatest blood supply to the brain.
The resuls are reported in the TABLE 2 (last column) as the percent variations of the flow measured at the level of the ledt vertebral arteria after the i.v. administration of the several compounds to be tested to groups of 4 animals for each compound. The results also confirm that the compounds of the invention are all endowed with a vasodilating activity at the level of the cerebral circulus, such an action being, for some compounds, much more remarkable than that of vincamine and apovincamine.

[4] = Solubility; format: physicochemical; settings: qualitative; for solubility in alcohol: alcohol (ethyl alcohol)

Row | Molecule | LD50 [1] [mg/kg] | Toxicity (Gleason) [1] | Max. conc. time ([2]; 100 mg/kg) [min] | % increase (percent variation of hematic flow, left vertebral arteria) ([3]; 5 mg/kg) [%] | solubility in alcohol [4] | solubility in water [4] | further results
1 | CC[C@@]12C=C(C(=O)OC)n3c4c(c5ccccc53)CCN(CCC1)[C@H]42 [Apovincamine, apovincamine] | 2000 | negligible | 60 | 25.6 |  |  | 
2 | CC[C@]12CCCN3CCc4c(n(c5ccccc45)[C@@](O)(C(=O)OC)C1)[C@@H]32 [Example 2.a, Vincamine 2,4-dihydroxy-benzoate] | 750 | modest | 120 | 24.8 | soluble |  | 
3 | CC[C@@]12C=C(C(=O)OC)n3c4c(c5ccccc53)CCN(CCC1)[C@H]42 [Example 2.b, Apovineamine 2,4-dihydroxy-benzoate] | 650 | modest | 120 | 29.0 | soluble |  | solubility in the common (organic) solvents ([4]; common organic solvents): not
4 | CC[C@]12CCCN3CCc4c(n(c5ccccc45)[C@@](O)(C(=O)OC)C1)[C@@H]32 [Example 3.a, Vincamine glucose-1-phosphate] | 1150 | light | 240 | 29.0 |  | partially soluble | 
5 | CC[C@@]12C=C(C(=O)OC)n3c4c(c5ccccc53)CCN(CCC1)[C@H]42 [Example 3.b, Apovincamine glucose-1-phosphate] | 850 | modest | 120 | 26.4 |  | soluble | 
6 | CC[C@]12CCCN3CCc4c(n(c5ccccc45)[C@@](O)(C(=O)OC)C1)[C@@H]32 [Example 4.a, Vincamine glucose-1-phosphate, acid salt] | 700 | modest | 240 | 26.6 |  | soluble | 
7 | CC[C@@]12C=C(C(=O)OC)n3c4c(c5ccccc53)CCN(CCC1)[C@H]42 [Example 4.b, Apovincamine glucose-1-phosphate, acid salt] | 600 | modest | 240 | 26.1 |  | soluble | 
8 | CC[C@]12CCCN3CCc4c(n(c5ccccc45)[C@@](O)(C(=O)OC)C1)[C@@H]32 [Example 4.c, glucose-6-phosphate acid salt] | 800 | modest | 240 | 28.2 |  |  | 
9 | CC[C@]12CCCN3CCc4c(n(c5ccccc45)[C@@](O)(C(=O)OC)C1)[C@@H]32 [Example 5.a, Vincamine 2,6-dihydroxybenzoate] | 550 | modest | 120 | 23.6 | insoluble | insoluble | 
10 | CC[C@@]12C=C(C(=O)OC)n3c4c(c5ccccc53)CCN(CCC1)[C@H]42 [Example 5.b, Apovincamine 2,6-dihydroxybenzoate] | 750 | modest | 120 | 25.4 | poorly soluble | insoluble | 
11 | CC[C@]12CCCN3CCc4c(n(c5ccccc45)[C@@](O)(C(=O)OC)C1)[C@@H]32 [Example 6.a, Vincamine 2,5-dihydroxybenzoate] | 800 | modest | 120 | 28.0 | insoluble | insoluble | 
12 | CC[C@@]12C=C(C(=O)OC)n3c4c(c5ccccc53)CCN(CCC1)[C@H]42 [Example 6.b, Apovincamine 2,5-dihydroxybenzoate] | 750 | modest | 240 | 30.9 | insoluble | insoluble | 
13 | CC[C@@]12C=C(C(=O)OC)n3c4c(c5ccccc53)CCN(CCC1)[C@H]42 [Example 12.b, Apovincamine furoate] |  |  | 240 | 24.0 | soluble | insoluble | 
14 | CC[C@@]12C=C(C(=O)OC)n3c4c(c5ccccc53)CCN(CCC1)[C@H]42 [Example 13.b, Apovincamine D(+)-camphorsulfonate] |  |  | 120 | 37.4 | soluble | soluble | 
15 | CC[C@]12CCCN3CCc4c(n(c5ccccc45)[C@@](O)(C(=O)OC)C1)[C@@H]32 [Example 15.a, nicotinate] | 900 | modest | 60 | 21.9 |  |  | 
16 | CC[C@]12CCC[N+]3(C)CCc4c(n(c5ccccc45)[C@@](O)(C(=O)OC)C1)[C@H]23 (some centres unmarked) [Example 17.a, Vincamine methylsulfate] |  |  |  |  | soluble | soluble | Tmax ([2]; 100 mg/kg): 1 h; % increase (percent variation of hematic flow, left vertebral arteria) [3]: 28.4%
17 | CC[C@@]12C=C(C(=O)OC)n3c4c(c5ccccc53)CC[N+](C)(CCC1)[C@H]42 (some centres unmarked) [Example 17.b, Apovincamine methylsulfate] |  |  |  |  | poorly soluble | soluble | Tmax ([2]; 100 mg/kg): 1 h; % increase (percent variation of hematic flow, left vertebral arteria) [3]: 29.7%
18 | CC[C@@]12C=C(C(=O)OC)n3c4c(c5ccccc53)CCN(CCC1)[C@H]42 [Example 20.b, Apovincamine theophylline-7-acetate] |  |  | 120 | 27.2 |  | soluble | 
19 | CC[C@@]12C=C(C(=O)OC)n3c4c(c5ccccc53)CCN(CCC1)[C@H]42 [Example 25.b, Apovincamine (D,L)-mandelate] |  |  | 120 | 34.5 | soluble | insoluble | 
20 | CC[C@]12CCCN3CCc4c(n(c5ccccc45)[C@@](O)(C(=O)OC)C1)[C@@H]32 [Vincamine HCl, reference compound] |  |  |  |  |  |  | Toxicity (Gleason) ([1]; HCl): modest; LD50 ([1]; HCl): 800 mg/kg; Max. conc. time ([2]; HCl, 100 mg/kg): 20 min; % increase (percent variation of hematic flow, left vertebral arteria) ([3]; HCl, 5 mg/kg): 24.1%
21 | Apovincamine tannate [Example 24.b] |  |  |  |  |  | insoluble | Max. conc. time [2]: 480 min; % increase (percent variation of hematic flow, left vertebral arteria) [3]: 29.8%
22 | glucose-6-phosphate [Example 3.c] | 1000 | light | 240 | 28.4 |  |  | 
23 | glucose-6-phosphate [Example 3.d] | 900 | modest | 120 | 28.8 |  |  | 
24 | glucose-6-phosphate disodium [Example 1.c] | 2000 | negligible |  |  |  |  | Max. conc. time ([2]; disodium, 100 mg/kg): 480 min; % increase (percent variation of hematic flow, left vertebral arteria) ([3]; disodium, 5 mg/kg): 26.3%
25 | glucose-6-phosphate disodium [Example 1.d] | 2000 | negligible |  |  |  |  | Max. conc. time ([2]; disodium, 100 mg/kg): 120 min; % increase (percent variation of hematic flow, left vertebral arteria) ([3]; disodium, 5 mg/kg): 29.3%

Source: US4122179A, “Acid addition salts of vincamine and apovincamine” (priority 1976, dated 1978)
